Reference: DBAASP
Converted amounts (≈) assume the structure as drawn. “And” between values parts separate entries of the source, which are not always exact repeats. Identical values can stand only once.

Tests used:
Assay in all cases: ≥ marks a high value that may be exact or a test limit, other limits are often not marked, values filed in µg/mL are converted to µM
[1] = test system: Acinetobacter baumannii ATCC 17978D-5
[2] = test system: Enterococcus faecium ATCC 700221
[3] = test system: Klebsiella aerogenes ATCC 13048
[4] = test system: Pseudomonas aeruginosa ATCC 19660
[5] = test system: Pseudomonas aeruginosa ATCC 27853
[6] = test system: Staphylococcus aureus ATCC 33591
[7] = test system: Staphylococcus epidermidis ATCC 51625
[8] = test system: Streptococcus pneumoniae ATCC 49619
[9] = test system: Escherichia coli ATCC 25404
Escherichia coli O157 = test system: Escherichia coli O157
Listeria monocytogenes = test system: Listeria monocytogenes
[10] = test system: Micrococcus luteus ATCC 10420
Salmonella typhimurium = test system: Salmonella typhimurium
[11] = test system: Staphylococcus aureus ATCC 25923
[12] = test system: Staphylococcus epidermidis ATCC 9709
Klebsiella pneumoniae = test system: Klebsiella pneumoniae
Staphylococcus aureus = test system: Staphylococcus aureus
Vibrio cholerae N16961 = test system: Vibrio cholerae N16961
[13] = test system: Candida albicans ATCC 10231
Escherichia coli D31 = test system: Escherichia coli D31
[14] = test system: Pseudomonas aeruginosa ATCC 15442
[15] = test system: Streptococcus mutans ATCC 25175
[16] = test system: Acinetobacter baumannii ATCC 17978
[17] = test system: Bacillus megaterium ATCC 10778
[18] = test system: Bacillus subtilis ATCC 6633
Candida albicans MDM8 = test system: Candida albicans MDM8
[19] = test system: Candida tropicalis IOC 4560
[20] = test system: Enterobacter cloacae beta-12
[21] = test system: Escherichia coli NCTC 12923
Escherichia coli SBS 363 = test system: Escherichia coli SBS 363
[22] = test system: Klebsiella pneumoniae NCTC 13368
Micrococcus luteus A270 = test system: Micrococcus luteus A270
[23] = test system: Pseudomonas aeruginosa NCIB 10421
[24] = test system: Pseudomonas aeruginosa NCTC 13437
[25] = test system: Pseudomonas aeruginosa PAO1
[26] = test system: Serratia marcescens ATCC 4112
[27] = test system: Staphylococcus aureus ATCC 29213
[28] = test system: Staphylococcus aureus ATCC 9144
[29] = test system: Staphylococcus aureus USA 300
[30] = test system: Acinetobacter baumannii ATCC 19606
[31] = test system: Candida albicans ATCC 90028
[32] = test system: Candida parapsilosis ATCC 22019
[33] = test system: Enterococcus faecalis ATCC 29212
[34] = test system: Escherichia coli ATCC 25922
[35] = test system: Klebsiella pneumoniae ATCC 13883
[36] = test system: Listeria ivanovii Li 4pVS2
[37] = test system: Streptococcus pyogenes ATCC 19615

## C[C@H](NC(=O)[C@H](Cc1ccccc1)NC(=O)[C@H](C)NC(=O)[C@H](Cc1ccccc1)NC(=O)[C@H](C)NC(=O)[C@H](Cc1ccccc1)NC(=O)[C@H](CCCCN)NC(=O)[C@H](CCCCN)NC(=O)[C@H](C)NC(=O)[C@H](Cc1ccccc1)NC(=O)[C@H](CCCCN)NC(=O)[C@H](CCCCN)NC(=O)[C@H](Cc1ccccc1)NC(=O)[C@H](CCCCN)NC(=O)[C@H](CCCCN)NC(=O)[C@H](C)NC(=O)[C@H](Cc1ccccc1)NC(=O)[C@H](CCCCN)NC(=O)[C@H](CCCCN)NC(=O)[C@H](C)NC(=O)[C@@H](N)Cc1ccccc1)C(=O)N[C@@H](Cc1ccccc1)C(=O)O [FAKKFAKKFKKFAKKFAFAFAF]
[1]
  MIC: 12.1 µM (≈ 32 µg/mL)
[2]
  MIC: 12.1 µM (≈ 32 µg/mL)
[3]
  MIC: 12.1 µM (≈ 32 µg/mL)
[4]
  MIC: 12.1 µM (≈ 32 µg/mL)
[5]
  MIC: 12.1 µM (≈ 32 µg/mL)
[6]
  MIC: 24.2 µM (≈ 64 µg/mL)
[7]
  MIC: 3.02 µM (≈ 8 µg/mL)
[8]
  MIC: 6.04 µM (≈ 16 µg/mL)

## CC(C)C[C@H](NC(=O)[C@H](CC(C)C)NC(=O)[C@H](CCCCN)NC(=O)[C@H](CO)NC(=O)[C@H](CC(C)C)NC(=O)[C@H](C)NC(=O)[C@H](Cc1cnc[nH]1)NC(=O)[C@H](Cc1c[nH]c2ccccc12)NC(=O)[C@H](CC(C)C)NC(=O)[C@H](C)NC(=O)CNC(=O)[C@H](CC(C)C)NC(=O)[C@@H](N)Cc1ccccc1)C(=O)O [FLGALWHALSKLL]
[9]
  MIC: ≥ 64 µM
Escherichia coli O157
  MIC: ≥ 64 µM
Listeria monocytogenes
  MIC: 8 µM (≈ 11.8 µg/mL)
[10]
  MIC: 2 µM (≈ 2.94 µg/mL)
Salmonella typhimurium
  MIC: ≥ 64 µM
[11]
  MIC: 8 µM (≈ 11.8 µg/mL)
[12]
  MIC: 4 µM (≈ 5.88 µg/mL)

## CC[C@H](C)[C@H](NC(=O)CNC(=O)[C@H](CC(C)C)NC(=O)[C@H](CC(C)C)NC(=O)[C@H](C)NC(=O)[C@H](CO)NC(=O)[C@H](CCCCN)NC(=O)[C@@H](NC(=O)CN)[C@@H](C)CC)C(=O)N[C@@H](C)C(=O)N[C@@H](CCCCN)C(=O)N[C@@H](CC(N)=O)C(=O)N[C@H](C(=O)NCC(=O)N[C@@H](CCSC)C(=O)N[C@@H](CO)C(=O)N[C@@H](CC(C)C)C(=O)N[C@@H](CC(C)C)C(=O)N[C@@H](CCC(N)=O)C(=O)N[C@@H](CCCCN)C(=O)N[C@@H](C)C(=O)N[C@@H](CCC(N)=O)C(=O)N[C@H]1CSSC[C@@H](C(N)=O)NC(=O)[C@H](CO)NC(=O)CNC(=O)[C@H](CO)NC(=O)[C@H](CC(C)C)NC(=O)[C@H](CCCCN)NC1=O)C(C)C [GIKSALLGIAKNVGMSLLQKAQCKLSGSC]
Klebsiella pneumoniae
  MIC: 8 µM (≈ 23.3 µg/mL)
[11]
  MIC: 8 µM and 22 µM
Staphylococcus aureus
  MIC: 16 µM (≈ 46.7 µg/mL)
Vibrio cholerae N16961
  MIC: 10 µM (≈ 29.2 µg/mL)

## CC[C@H](C)[C@H](NC(=O)[C@@H](NC(=O)CN)C(C)C)C(=O)N[C@H](C(=O)N[C@@H](CC(=O)O)C(=O)N[C@@H](C)C(=O)N[C@@H](CC(C)C)C(=O)N[C@@H](CCCCN)C(=O)NCC(=O)N[C@@H](C)C(=O)N[C@@H](C)C(=O)N[C@@H](CCCCN)C(=O)N[C@H](C(=O)N[C@H](C(=O)N[C@@H](C)C(=O)N[C@@H](C)C(=O)N[C@@H](CCC(=O)O)C(=O)N[C@@H](CC(C)C)C(=O)N1CCC[C@H]1C(=O)N[C@@H](CCCN=C(N)N)C(=O)N[C@@H](CCCCN)C(=O)N[C@@H](C)C(=O)N[C@@H](Cc1cnc[nH]1)C(N)=O)C(C)C)[C@@H](C)O)[C@@H](C)O [GVITDALKGAAKTVAAELPRKAH]
[13]
  MIC: > 100 µM
Escherichia coli D31
  MIC: ≥ 100 µM
[14]
  MIC: ≥ 100 µM
[11]
  MIC: > 100 µM
[15]
  MIC: ≥ 100 µM

## CC[C@H](C)[C@H](N)C(=O)N[C@@H](CC(C)C)C(=O)N[C@@H](CCCCN)C(=O)N[C@@H](CCCCN)C(=O)N[C@H](C(=O)N[C@@H](Cc1c[nH]c2ccccc12)C(=O)N[C@@H](CCC(=O)O)C(=O)NCC(=O)N[C@H](C(=O)N[C@@H](CCCCN)C(=O)N[C@@H](CO)C(=O)N[C@@H](CC(C)C)C(=O)N[C@@H](Cc1ccccc1)C(N)=O)[C@@H](C)CC)[C@@H](C)CC [ILKKIWEGIKSLF]
[16]
  MIC: 2.54 µM (≈ 4 µg/mL)
[17]
  MIC: 0.78 µM (≈ 1.23 µg/mL)
[18]
  MIC: 0.78 µM (≈ 1.23 µg/mL)
Candida albicans MDM8
  MIC: 1.56 µM (≈ 2.46 µg/mL)
[19]
  MIC: 0.78 µM (≈ 1.23 µg/mL)
[20]
  MIC: 3.13 µM (≈ 4.93 µg/mL)
[21]
  MIC: 5.08 µM (≈ 8 µg/mL)
Escherichia coli SBS 363
  MIC: 0.78 µM (≈ 1.23 µg/mL)
[22]
  MIC: 10.2 µM (≈ 16 µg/mL)
Micrococcus luteus A270
  MIC: 0.78 µM (≈ 1.23 µg/mL)
[23]
  MIC: 6.25 µM (≈ 9.84 µg/mL)
[24]
  MIC: ≥ 40.6 µM
[25]
  MIC: > 81.3 µM
[26]
  MIC: 0.36 µM (≈ 0.567 µg/mL)
[27]
  MIC: 1.56 µM (≈ 2.46 µg/mL)
[28]
  MIC: 5.08 µM (≈ 8 µg/mL)
[29]
  MIC: 10.2 µM (≈ 16 µg/mL)

## CC[C@H](C)[C@H](NC(=O)[C@H](CCCN=C(N)N)NC(=O)[C@H](Cc1ccc(O)cc1)NC(=O)CNC(=O)[C@H](Cc1ccc(O)cc1)NC(=O)[C@H](CCCN=C(N)N)NC(=O)[C@H](CC(C)C)NC(=O)[C@H](C)NC(=O)[C@H](CCC(N)=O)NC(=O)[C@H](CCC(=O)O)NC(=O)[C@@H](NC(=O)[C@H](CCC(N)=O)NC(=O)[C@H](CCCN=C(N)N)NC(=O)[C@H](CCSC)NC(=O)[C@H](Cc1ccc(O)cc1)NC(=O)[C@H](CCC(N)=O)NC(=O)[C@@H](N)CCCN=C(N)N)[C@@H](C)CC)C(=O)N[C@@H](CO)C(=O)N[C@@H](CCCN=C(N)N)C(=O)N[C@@H](CCCN=C(N)N)C(N)=O [RQYMRQIEQALRYGYRISRR]
[30]
  MIC: 6.25 µM (≈ 16.5 µg/mL)
[31]
  MIC: ≥ 200 µM
[32]
  MIC: ≥ 50 µM
[33]
  MIC: > 100 µM
[34]
  MIC: 6.25 µM (≈ 16.5 µg/mL)
[35]
  MIC: ≥ 80 µM
[36]
  MIC: ≥ 50 µM
[5]
  MIC: 25 µM (≈ 66.1 µg/mL)
[11]
  MIC: 100 µM (≈ 264 µg/mL)
[37]
  MIC: ≥ 50 µM
